Laboratory results from paper PMC10606834, “Is the Neuropeptide PEN a Ligand of GPR83?” (International Journal of Molecular Sciences, 2023).

What was measured:
[1] = system: GPR83 and GPR83del with Gα16 (HEK293); assay: Intracellular calcium mobilization, Gα16-transfected HEK293 cells; assay type: cell-based, human; settings: 10 µM PEN, 100 µM carbachol, 100 µM ATP, Fluo4-AM fluorescence, duplicate, repeated at least two times
Description: (§1) As activation of many GPCRs is coupled to calcium mobilization from intracellular stores, GPR83 was probed for ligand-dependent calcium release. Wild-type HEK293 cells and HEK293 clones overexpressing either full-length GPR83 or the N-terminal deletion variant GPR83del were exposed to buffer or one of two independent synthesis batches (PEN #1 and PEN #2) of the neuropeptide PEN, while calcium indicator fluorescence was recorded. […] Calcium release was also tested in a second cell line, osteosarcoma U2OS cells, using various stably expressing clones. […] Therefore, HEK293 cells transfected with Gα16 were employed to investigate a potential GPR83-dependent calcium mobilization with PEN. […] A number of GPCRs show ligand-independent basal calcium activity. However, in an experiment comparing basal calcium levels in wild-type HEK293 cells and in HEK293 clones overexpressing four different variants of GPR83, they were not found to be different (Figure 2D).
(§2) Figure 2 Investigation of ligand-dependent and ligand-independent intracellular calcium mobilization. (A) Wild-type HEK293 cells and HEK293 cell clones overexpressing either GPR83 or the deletion variant GPR83del were incubated with either buffer or the specified ligand (10 µM PEN or co mix = 100 µM carbachol, 100 µM ATP, 40 µM dimaprit, or 50 µM ionomycin). (B) Calcium indicator fluorescence intensity traces over 60 s of various U2OS cell clones overexpressing untagged or HA-tagged GPR83 or the deletion variant GPR83del before and after the addition of buffer or ligand (co mix as in (A) or 50 µM ionomycin or 10 µM PEN). […]
(§3) Cells were seeded at 50,000 cells/well in a poly-D-lysine coated 96-well black well/clear bottom plate (BD Falcon, Franklin Lakes, NJ, USA) and cultured overnight. […] Fluorescence was recorded with the fluorescence imaging plate reader CellLux (Perkin Elmer, Waltham, MA, USA) simultaneously in all wells at an excitation wavelength of 488 nm and emission wavelength of 510 nm in 1.5 s intervals over a period of 4 min. Fluorescence data were generated in duplicate, and experiments were repeated at least two times.

[2] = system: GPR83 and deletion variant GPR83del (HEK293 clones; wild-type HEK293 as comparison); assay: Intracellular calcium mobilization, HEK293 cells; assay type: cell-based, human; settings: 10 µM PEN; co mix = 100 µM carbachol, 100 µM ATP, 40 µM dimaprit; 50 µM ionomycin; HEK293 wild-type, GPR83 or GPR83del clones; Fluo4-AM fluorescence, compared with buffer; duplicate, repeated at least two times
Description: as §1, §2, §3

SMILES | calcium signal [1] | calcium signal [2]
Nc1ncnc2c1ncn2[C@@H]1O[C@H](COP(=O)(O)OP(=O)(O)OP(=O)(O)O)[C@@H](O)[C@H]1O [ATP] | strongly enhanced the calcium signal | –
C[N+](C)(C)CCOC(N)=O [carbachol] | strongly enhanced the calcium signal | –
C[C@H](CCC(=O)O)C[C@H](C)C[C@H](C)C(=O)/C=C(\O)[C@H](C)C[C@H](C)C/C=C/[C@@H](C)[C@@H](O)[C@@H](C)[C@@H](O)C[C@@H]1CC[C@@](C)([C@H]2CC[C@@](C)([C@@H](C)O)O2)O1 [ionomycin, reference compound] | – | clear calcium signal above buffer background
